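Step 1: Grow cells in 96-well plates. Step 2: Expose to compound for 48 hours at 5 concentrations. Step 3: Interpolate endpoints linearly; if unreached, use highest concentration. GI50: concentration for 50% inhibition of growth.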 Active and inactive are the calls of the source. Rule as the data show it: active = GI50 up to about 1.1 µM and inactive = higher.
Columns and labels:
Assay in all cases: NCI tumour cell line growth inhibition, 48 h
A549 = test system: A549
CAKI-1 = test system: CAKI-1
COLO 205 = test system: COLO 205
HCT-116 = test system: HCT-116
HT-29 = test system: HT-29
KM12 = test system: KM12
Malme-3M = test system: Malme-3M
OVCAR-3 = test system: OVCAR-3
OVCAR-4 = test system: OVCAR-4
SF-539 = test system: SF-539
SK-MEL-2 = test system: SK-MEL-2
SNB-78 = test system: SNB-78
SW-620 = test system: SW-620
U-251 = test system: U-251
UACC-62 = test system: UACC-62
DU-145 = test system: DU-145
MCF7 = test system: MCF7
MDA-MB-231 = test system: MDA-MB-231
MDA-MB-435 = test system: MDA-MB-435
PC-3 = test system: PC-3

Measured: GI50

COc1ccc2c(c1)CCN1C3=C(CCC3)C(=O)C[C@@H]21
inactive: A549 > 100 µM | CAKI-1 > 100 µM | COLO 205 > 100 µM | HCT-116 > 100 µM | HT-29 > 100 µM | KM12 > 100 µM | Malme-3M > 100 µM | OVCAR-3 > 100 µM | OVCAR-4 > 100 µM | SF-539 > 100 µM | SK-MEL-2 > 100 µM | SNB-78 > 100 µM | SW-620 > 100 µM | U-251 > 100 µM | UACC-62 > 100 µM

CSc1ncnc2c1CCN2
inactive: A549 > 10 µM | CAKI-1 > 10 µM | COLO 205 8.85 µM | DU-145 > 10 µM | HCT-116 6.07 µM | HT-29 7.96 µM | KM12 5.35 µM | MCF7 6.34 µM | MDA-MB-231 > 10 µM | MDA-MB-435 2.21 µM | Malme-3M 6.62 µM | OVCAR-3 2.87 µM | OVCAR-4 > 10 µM | PC-3 > 10 µM | SK-MEL-2 5.86 µM | SNB-78 > 100 µM | SW-620 7.96 µM | UACC-62 3.81 µM

COC(=O)C(=O)C(C(=O)OC)C(=O)C(=O)Nc1cc(Cl)c(C)cc1S(=O)(=O)O (stereo not drawn)
inactive: A549 > 100 µM | CAKI-1 > 100 µM | COLO 205 > 100 µM | HCT-116 > 100 µM | HT-29 > 100 µM | KM12 > 100 µM | Malme-3M > 100 µM | OVCAR-3 > 100 µM | OVCAR-4 > 100 µM | SF-539 > 100 µM | SK-MEL-2 > 100 µM | SNB-78 > 100 µM | SW-620 > 100 µM | U-251 > 100 µM | UACC-62 > 100 µM

COC(=O)C12C3C4C5(C(=O)OC)C(C1C35C(=O)N(C(C)C)C(C)C)C42C(=O)N(C(C)C)C(C)C (stereo not drawn)
inactive: A549 > 45.9 µM | CAKI-1 > 50 µM | COLO 205 > 50 µM | HCT-116 14.7 µM | HT-29 > 50 µM | KM12 > 50 µM | Malme-3M > 50 µM | OVCAR-3 > 50 µM | OVCAR-4 > 35.6 µM | SF-539 > 50 µM | SK-MEL-2 > 50 µM | SNB-78 > 50 µM | SW-620 > 25.5 µM | U-251 > 50 µM | UACC-62 > 50 µM

COc1cc2c(cc1O)[C@H](C)C(c1ccccc1OC)O2 (stereo partly drawn)
inactive: A549 5.33 µM | CAKI-1 5.98 µM | COLO 205 6.97 µM | HCT-116 3.86 µM | HT-29 6.7 µM | KM12 3.87 µM | Malme-3M 4.14 µM | OVCAR-3 6.53 µM | OVCAR-4 8.32 µM | SF-539 5.11 µM | SK-MEL-2 3.05 µM | SNB-78 5.78 µM | SW-620 3.27 µM | U-251 2.34 µM | UACC-62 3.33 µM

CC1=C2C(=CO[C@H](C)[C@H]2C)C(O)=C(C(=O)O)C1=O [CITRININ]
inactive: A549 70.5 µM | CAKI-1 27.3 µM | COLO 205 33.9 µM | DU-145 24.2 µM | HCT-116 25.8 µM | HT-29 33.9 µM | KM12 26.9 µM | MCF7 15.7 µM | MDA-MB-231 23.2 µM | MDA-MB-435 27 µM | Malme-3M 50.1 µM | OVCAR-3 16.7 µM | OVCAR-4 32.9 µM | PC-3 32 µM | SF-539 12.3 µM | SK-MEL-2 16.3 µM | SNB-78 11.2 µM | SW-620 20.6 µM | U-251 14.6 µM | UACC-62 20.3 µM

COc1cc2ccc(=O)oc2cc1O [SCOPOLETIN]
inactive: A549 40.1 µM | CAKI-1 119 µM | COLO 205 142 µM | DU-145 > 100 µM | HCT-116 56.4 µM | HT-29 161 µM | KM12 36.1 µM | MCF7 118 µM | MDA-MB-231 > 100 µM | MDA-MB-435 > 100 µM | Malme-3M 156 µM | OVCAR-3 69.8 µM | OVCAR-4 101 µM | PC-3 > 100 µM | SF-539 53.3 µM | SK-MEL-2 109 µM | SNB-78 307 µM | SW-620 67.3 µM | U-251 24.8 µM | UACC-62 71.3 µM

From ChEMBL document CHEMBL1201862, “PubChem BioAssay data set” (2004)
